Calls of active or inactive are those of the source. No cut-off for these calls is given here.
Key:
MDA-MB-231 = test: Antiproliferative activity against human MDA-MB-231 cells incubated for 48 hrs by MTT assay; format: functional, cell-based; details: MDA-MB-231, 48 h
BEL-7404 tumor cell line = test: Antiproliferative activity against human BEL-7404 tumor cell line incubated for 48 hrs by MTT assay; format: functional, cell-based; details: BEL-7404, 48 h
HepG2 [1] = test: Induction of morphological changes in human HepG2 cells assessed as cell shrinkage at 40 uM measured after 12 to 24 hrs by fluorescence inverted microscopic analysis; format: functional, cell-based; details: time 12-24 hrs
HepG2 [2] = test: Induction of morphological changes in human HepG2 cells assessed as appearance of luminous morphology at 40 uM measured after 12 to 24 hrs by fluorescence inverted microscopic analysis; format: functional, cell-based; details: time 12-24 hrs
HepG2 [3] = test: Induction of morphological changes in human HepG2 cells assessed as increase in cell death at 40 uM measured after 48 hrs by fluorescence inverted microscopic analysis; format: functional, cell-based
HepG2 [4] = test: Induction of apoptosis in human HepG2 cells assessed as early apoptotic cells at 10 uM incubated for 48 hrs by annexin V-FITC/PI staining based flow cytometry analysis (reference value: 0.50%); format: functional
HepG2 [5] = test: Induction of apoptosis in human HepG2 cells assessed as late apoptotic cells at 5 uM incubated for 48 hrs by annexin V-FITC/PI staining based flow cytometry analysis (reference value: 0.16%); format: functional
HepG2 [6] = test: Induction of apoptosis in human HepG2 cells assessed as late apoptotic cells at 10 uM incubated for 48 hrs by annexin V-FITC/PI staining based flow cytometry analysis (reference value: 0.16%); format: functional
HepG2 [7] = test: Induction of apoptosis in human HepG2 cells assessed as necrotic cells at 10 uM incubated for 48 hrs by annexin V-FITC/PI staining based flow cytometry analysis (reference value: 0%); format: functional
HepG2 [8] = test: Induction of apoptosis in human HepG2 cells assessed as necrotic cells at 20 uM incubated for 48 hrs by annexin V-FITC/PI staining based flow cytometry analysis (reference value: 0%); format: functional
HepG2 [9] = test: Induction of cell cycle arrest in human HepG2 cells assessed as assessed as accumulation of cells at 2N phase at 10 uM incubated for 12 hrs by PI staining based flow cytometry analysis (reference value: 26.0%); format: functional
HepG2 [10] = test: Induction of cell cycle arrest in human HepG2 cells assessed as accumulation of cells at 2N phase at 20 uM incubated for 48 hrs by PI staining based flow cytometry analysis (reference value: 26.0%); format: functional
HepG2 [11] = test: Induction of cell cycle arrest in human HepG2 cells assessed as accumulation of cells at S phase at 10 uM incubated for 48 hrs by PI staining based flow cytometry analysis (reference value: 39.6%); format: functional
HepG2 [12] = test: Induction of cell cycle arrest in human HepG2 cells assessed as accumulation of cells at S phase at 20 uM incubated for 48 hrs by PI staining based flow cytometry analysis (reference value: 39.6%); format: functional
HepG2 [13] = test: Induction of cell cycle arrest in human HepG2 cells assessed as accumulation of cells at G2/M phase at 10 uM incubated for 24 hrs by PI staining based flow cytometry analysis (reference value: 6.38%); format: functional
HepG2 [14] = test: Induction of cell cycle arrest in human HepG2 cells assessed as accumulation of cells at G2/M phase at 5 uM incubated for 48 hrs by PI staining based flow cytometry analysis (reference value: 6.38%); format: functional
HepG2 [15] = test: Induction of cell cycle arrest in human HepG2 cells assessed as accumulation of cells at G2/M phase at 10 uM incubated for 48 hrs by PI staining based flow cytometry analysis (reference value: 6.38%); format: functional
HepG2 [16] = test: Induction of cell cycle arrest in human HepG2 cells assessed as accumulation of cells at G2/M phase at 20 uM incubated for 48 hrs by PI staining based flow cytometry analysis (reference value: 6.38%); format: functional
HepG2 [17] = test: Induction of cell cycle arrest in human HepG2 cells assessed as accumulation of cells at >G2/M phase at 5 uM incubated for 48 hrs by PI staining based flow cytometry analysis (reference value: 28.0%); format: functional
HepG2 [18] = test: Induction of cell cycle arrest in human HepG2 cells assessed as accumulation of cells at >G2/M phase at 20 uM incubated for 48 hrs by PI staining based flow cytometry analysis (reference value: 28.0%); format: functional
Cell membrane [19] = test: Induction of mitochondrial membrane potential loss in human HepG2 cells assessed as decrease in fluorescence measured after 48 hrs by Rhodamine 123 staining based flow cytometry; format: cell membranes; details: dose 5-20 µM
Cell membrane [20] = test: Induction of mitochondrial membrane potential loss in human HepG2 cells assessed as decrease in fluorescence at 10 uM measured after 24 hrs by Rhodamine 123 staining based flow cytometry (reference value: 66.8%); format: cell membranes; parameters: scale not given: the % may be the effect or the level left
Cell membrane [21] = test: Induction of mitochondrial membrane potential loss in human HepG2 cells assessed as decrease in fluorescence at 10 uM by Rhodamine 123 staining based flow cytometry; format: cell membranes; details: time 12-48 hrs, TDE = time-dependent effect
HepG2 [22] = test: Induction of apoptosis in human HepG2 cells assessed as increase in intracellular calcium level at 10 uM measured after 24 hrs by fluo-3AM dye based flow cytometry analysis; format: functional, cell-based
HepG2 [23] = test: Induction of autophagy in human HepG2 cells assessed as increase in formation of autophagosomes at 5 to 10 uM incubated for 24 hrs by acridine orange staining based laser confocal microscopic analysis; format: functional, cell-based; details: dose 5-10 µM
HepG2 [24] = test: Induction of apoptosis in human HepG2 cells assessed as increase in caspase 3 activity at 5 to 10 uM measured after 24 hrs by green-nuc staining based fluorescence microscopic analysis; format: functional, cell-based; details: dose 5-10 µM
[25] = Toxicity in Balb/c mouse assessed as effect on body weight at 6 mg/kg, iv measured every two days for 14 days; format: organism-based; details: in vivo, 336 h, time 14 day
[26] = Toxicity in Balb/c mouse assessed as effect on heart at 6 mg/kg, iv measured after 14 days by H and E staining based analysis; format: organism-based; details: in vivo, 336 h, time 14 day
[27] = Toxicity in Balb/c mouse assessed as effect on liver at 6 mg/kg, iv measured after 14 days by H and E staining based analysis; format: organism-based; details: in vivo, 336 h, time 14 day
[28] = Upregulation of FGF21 expression level in human HepG2 cells assessed as fold change by KEGG enrichment analysis; format: functional
[29] = Upregulation of PGF expression level in human HepG2 cells assessed as fold change by KEGG enrichment analysis; format: functional
[30] = Upregulation of NGFR expression level in human HepG2 cells assessed as fold change by KEGG enrichment analysis; format: functional
[31] = Upregulation of ATF4 expression level in human HepG2 cells assessed as fold change by KEGG enrichment analysis; format: functional
[32] = Upregulation of SOCS1 expression level in human HepG2 cells assessed as fold change by KEGG enrichment analysis; format: functional
[33] = Upregulation of DET1 expression level in human HepG2 cells assessed as fold change by KEGG enrichment analysis; format: functional
[34] = Upregulation of TRAF1 expression level in human HepG2 cells assessed as fold change by KEGG enrichment analysis; format: functional
[35] = Downregulation of DKK1 expression level in human HepG2 cells assessed as fold change by KEGG enrichment analysis; format: functional

## CC(C)C[C@H]1NC(=O)[C@H]([C@@H](C)OCc2ccccc2)NC(=O)[C@H]2CCCN2C(=O)CN2C(=O)c3ccccc3[C@@]2(O)CN(Cc2ccccc2)C(=O)[C@H](Cc2ccccc2)NC(=O)[C@H]2CCCN2C(=O)[C@H](Cc2c[nH]c3ccccc23)NC1=O
MDA-MB-231
  IC50: 12.8 µM
BEL-7404 tumor cell line
  IC50: 17.1 µM
HepG2 [1]
  Activity: Active
HepG2 [2]
  Activity: Active
HepG2 [3]
  Activity: Active
HepG2 [4]
  Activity: 27.3%
HepG2 [5]
  Activity: 2.4%
HepG2 [6]
  Activity: 4.57%
HepG2 [7]
  Activity: 0%
HepG2 [8]
  Activity: 0.02%
HepG2 [9]
  Activity: 27.8%
HepG2 [10]
  Activity: 21.9%
HepG2 [11]
  Activity: 23.3%
HepG2 [12]
  Activity: 11.7%
HepG2 [13]
  Activity: 13%
HepG2 [14]
  Activity: 18.9%
HepG2 [15]
  Activity: 23%
HepG2 [16]
  Activity: 37.1%
HepG2 [17]
  Activity: 2.76%
HepG2 [18]
  Activity: 1.12%
Cell membrane [19]
  Activity: Dose-Dependent Effect
Cell membrane [20]
  Activity: 45.4%
Cell membrane [21]
  Activity: Tde
HepG2 [22]
  Activity: Active
HepG2 [23]
  Activity: Active
HepG2 [24]
  Activity: Active
[25]
  Activity: Non-Toxic
[26]
  Activity: Non-Toxic
[27]
  Activity: Non-Toxic
[28]
  fold change (FC): 9.022
[29]
  fold change (FC): 2.135
[30]
  fold change (FC): 1.584
[31]
  fold change (FC): 1.43
[32]
  fold change (FC): 1.707
[33]
  fold change (FC): 1.448
[34]
  fold change (FC): 1.094
[35]
  fold change (FC): -3.288

— ChEMBL document CHEMBL5550186, “Exploring the Potential of Cyclic Peptidyl Antitumor Agents Derived from Natural Macrocyclic Peptide Phakellistatin 13” (J Med Chem, 2024)
